Reference: US7919101B2 (priority 2008, dated 2011)
“And” between values parts separate entries of the source, which are not always exact repeats. Equal entries are not always repeated. Where two headings read alike, the source gives them in different places.

What was measured:
[1] = tested on: HIV-1-mediated cell-cell fusion (H9/HIV-1IIIB cells and MT-2 cells); assay: HIV-1-mediated cell-cell fusion, dye transfer assay; format: cell-based
Description: The inhibitory activities of the compounds on HIV-induced cell-cell fusion were determined using a dye transfer assay (Jiang S et al. Proc SPIE 3926:212-219, 2000). Briefly, H9/HIV-1IIIB cells were pre-labeled with a fluorescent dye, Calcein AM (Molecular Probes, Inc.), and incubated with a testing compound at a graded concentration at 37° C. for 30 min in a 96-well cell culture plate. Then the CD4^+ MT-2 cells were added to the H9/HIV-1IIIB cells at a ratio of 10:1, followed by incubation at 37° C. for 2 hrs. The fused and unfused calcein-labeled HIV-1-infected cells were counted under an inverted fluorescence microscope with an eyepiece micrometer disc.

[2] = tested on: HIV-1 RU570 (clade G, R5); assay: Inhibition of infection by primary HIV-1 isolate RU570; format: cell-based
Description: Inhibitory activity of fusion/entry inhibitors on infection by a primary HIV-1 isolate was determined as previously described (Jiang S et al. Antimicrob Agents Chemother 48:4349-4359, 2004). Peripheral blood mononuclear cells (PBMCs) were isolated from the blood of healthy donors by standard density gradient centrifugation using Histopaque-1077 (Sigma). The cells were plated in 75 cm^2 plastic flasks and incubated at 37° C. for 2 hrs. The nonadherent cells were collected and resuspended at 5×10^6 in 10 ml RPMI-1640 medium containing 10% FBS, 5 μg/ml PHA (phytohemagglutinin) and 100 U/ml IL-2 (Sigma), followed by incubation at 37° C. for 3 days. The PHA-stimulated cells were infected with a primary HIV-1 isolates at 0.01 MOI in the absence or presence of a compound at graded concentrations. Culture media were changed every 3 days. The supernatants were collected 7 days post-infection and tested for p24 antigen by ELISA as described above. The percent inhibition of p24 production and EC50 values were calculated as described above.
4. Synergy analysis. […] In all analyses, HIV fusion/entry inhibitors were assumed to act noncompetitively, which led to a more conservative estimate of synergy. CI values<1 and >1 indicate synergy and antagonism, respectively. Dose reductions were calculated as the compound concentrations required for inhibition of HIV-1 replication when the compound was used alone and in combination. The statistic analysis was performed by the One-Way Analysis of Variance (One-Way ANOVA) method using Origin 6.1 software.

[3] = in the blood; cited from earlier work
[4] = in combination T-20:C34 (8:1) vs alone
[5] = in combination T-20:Sifuvirtide (4:1)
[6] = in combination T-20:Sifuvirtide (4:1) vs alone
[7] = in combination T-20:T-1144 (4:1)
[8] = in combination T-20:T-1144 (4:1) vs alone
[9] = in combination T-20:T-1249 (4:1)
[10] = in combination T-20:T-1249 (4:1) vs alone
[11] = in combination T-20:T-1249:C34 (8:2:1)
[12] = in combination T-20:T-1249:C34 (8:2:1) vs alone
[13] = in combination T-20:T-1249:T-1144 (4:1:1)
[14] = in combination T-20:T-1249:T-1144 (4:1:1) vs alone
[15] = peptide tested alone, listed as T20

## enfuvirtide
[1]; in combination T-20:C34 (8:1)
  EC70 Concentration Mix: 427 pM
  EC95 Concentration Mix: 682 pM
[1]; [4]
  Potency increase at EC50: 61.108 fold
  Potency increase at EC70: 62.834 fold
  Potency increase at EC95: 65.594 fold
[1]; in combination T-20:C34 (8:1), read-out: EC50 Concentration Mix
  EC50: 324 pM
[1]; in combination T-20:C34 (8:1), read-out: EC90 Concentration Mix
  EC90: 564 pM
[1]; [5]
  EC70 Concentration Mix: 2356 pM
  EC95 Concentration Mix: 3537 pM
[1]; [6]
  Potency increase at EC50: 8.928 fold
  Potency increase at EC70: 8.863 fold
  Potency increase at EC95: 8.757 fold
[1]; in combination T-20:Sifuvirtide (4:1), read-out: EC50 Concentration Mix
  EC50: 1850 pM
[1]; in combination T-20:Sifuvirtide (4:1), read-out: EC90 Concentration Mix
  EC90: 3000 pM
[1]; [7]
  EC70 Concentration Mix: 33 pM
  EC95 Concentration Mix: 52 pM
[1]; [8]
  Potency increase at EC50: 791.960 fold
  Potency increase at EC70: 813.030 fold
  Potency increase at EC95: 860.288 fold
[1]; in combination T-20:T-1144 (4:1), read-out: EC50 Concentration Mix
  EC50: 25 pM
[1]; in combination T-20:T-1144 (4:1), read-out: EC90 Concentration Mix
  EC90: 43 pM
[1]; [9]
  EC70 Concentration Mix: 51 pM
  EC95 Concentration Mix: 82 pM
[1]; [10]
  Potency increase at EC50: 521.026 fold
  Potency increase at EC70: 526.078 fold
  Potency increase at EC95: 545.549 fold
[1]; in combination T-20:T-1249 (4:1), read-out: EC50 Concentration Mix
  EC50: 38 pM
[1]; in combination T-20:T-1249 (4:1), read-out: EC90 Concentration Mix
  EC90: 68 pM
[1]; [11]
  EC70 Concentration Mix: 70 pM
  EC95 Concentration Mix: 108 pM
[1]; [12]
  Potency increase at EC50: 366.648 fold
  Potency increase at EC70: 383.286 fold
  Potency increase at EC90: more than 399 fold
  Potency increase at EC95: 414.213 fold
[1]; in combination T-20:T-1249:C34 (8:2:1) vs alone, listed as T20
  Potency increase at EC90: 399.648 fold
[1]; in combination T-20:T-1249:C34 (8:2:1), read-out: EC50 Concentration Mix
  EC50: 54 pM
[1]; in combination T-20:T-1249:C34 (8:2:1), read-out: EC90 Concentration Mix
  EC90: 91 pM
[1]; [13]
  EC70 Concentration Mix: 19 pM
  EC95 Concentration Mix: 29 pM
[1]; [14]
  Potency increase at EC50: 1319.933 fold
  Potency increase at EC70: 1412.105 fold
  Potency increase at EC95: 1542.586 fold
[1]; in combination T-20:T-1249:T-1144 (4:1:1), read-out: EC50 Concentration Mix
  EC50: 15 pM
[1]; in combination T-20:T-1249:T-1144 (4:1:1), read-out: EC90 Concentration Mix
  EC90: 25 pM
[1]; peptide tested alone
  EC70 Concentration Alone: 26830 pM and 20882 pM
  EC95 Concentration Alone: 44735 pM and 30973 pM
[1]; [15]
  EC70 Concentration Alone: 26830 pM
  EC95 Concentration Alone: 44735 pM
[1]; peptide tested alone, read-out: EC50 Concentration Alone
  EC50: 19800 pM and 16500 pM
[1]; peptide tested alone, read-out: EC90 Concentration Alone
  EC90: 36400 pM and 26400 pM
[2]; RU570 (G, R5) primary isolate, peptide alone, read-out: EC50 alone
  EC50: 38400 pM
[2]; RU570, T-20+T-1249+T-1144 4:1:1
  Dose reduction: 8.47 fold
[2]; RU570, T-20+T-1249+T-1144 4:1:1, read-out: EC50 in mixture
  EC50: 4540 pM
[2]; RU570, T-20 combined with T-1144
  Dose reduction: 7.41 fold
[2]; RU570, T-20 combined with T-1144, ratios 4:1:1, read-out: EC50 in mixture
  EC50: 5190 pM
[2]; RU570, T-20 combined with T-1249, ratios 4:1:1, read-out: EC50 in mixture
  EC50: 5980 pM
[3]
  half-life in vivo: about 2 hours
